Assays:
SLC38A2 = target: T1, SLC38A2 (Homo sapiens, UniProt Q96QD8); experiment: thermal shift assay
T1 sequence (Q96QD8 1-506): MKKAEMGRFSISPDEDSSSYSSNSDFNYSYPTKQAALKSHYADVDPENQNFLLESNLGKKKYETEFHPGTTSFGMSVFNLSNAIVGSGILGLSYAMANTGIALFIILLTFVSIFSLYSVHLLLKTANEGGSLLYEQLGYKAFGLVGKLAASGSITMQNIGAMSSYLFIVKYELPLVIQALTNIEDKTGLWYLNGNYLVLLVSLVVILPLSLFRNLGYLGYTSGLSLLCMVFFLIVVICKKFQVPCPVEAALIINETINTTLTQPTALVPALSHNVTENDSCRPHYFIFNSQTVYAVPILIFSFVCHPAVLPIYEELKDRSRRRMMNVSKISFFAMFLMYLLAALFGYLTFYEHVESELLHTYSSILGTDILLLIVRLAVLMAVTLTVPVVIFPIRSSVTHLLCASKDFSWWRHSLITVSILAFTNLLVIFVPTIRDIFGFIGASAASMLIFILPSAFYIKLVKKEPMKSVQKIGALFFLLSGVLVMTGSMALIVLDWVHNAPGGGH

SLC1A5 = target: T2, SLC1A5 (Homo sapiens, UniProt Q15758); experiment: thermal shift assay
T2 sequence (Q15758 1-541): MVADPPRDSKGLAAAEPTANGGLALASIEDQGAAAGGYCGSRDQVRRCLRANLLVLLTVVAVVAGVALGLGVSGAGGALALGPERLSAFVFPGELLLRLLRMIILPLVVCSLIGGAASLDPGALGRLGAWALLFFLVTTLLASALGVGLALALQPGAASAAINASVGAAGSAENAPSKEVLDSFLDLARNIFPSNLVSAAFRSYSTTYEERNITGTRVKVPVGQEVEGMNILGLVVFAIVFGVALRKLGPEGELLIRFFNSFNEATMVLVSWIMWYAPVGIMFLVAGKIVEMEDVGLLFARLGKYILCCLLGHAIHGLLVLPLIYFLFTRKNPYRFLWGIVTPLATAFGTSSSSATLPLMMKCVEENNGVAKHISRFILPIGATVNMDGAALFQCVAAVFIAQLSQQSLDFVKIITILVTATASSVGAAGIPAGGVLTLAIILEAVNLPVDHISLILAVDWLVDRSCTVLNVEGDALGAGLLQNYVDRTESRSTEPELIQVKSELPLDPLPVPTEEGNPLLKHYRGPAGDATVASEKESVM

Compound: Cc1cccc(COc2ccccc2CN(CC[C@H](N)C(=O)O)Cc2ccccc2OCc2cccc(C)c2)c1 [V-9302]
- Tm (SLC38A2): V-9302 significantly altered the Tm values of SLC1A5, SLC38A2, SLC6A19, and ANO1
- Tm (SLC1A5): V-9302 significantly altered the Tm values of SLC1A5, SLC38A2, SLC6A19, and ANO1
